# Laboratory results from patent US9951097B2, “Antibacterial compounds targeting isoprenoid biosynthesis” (priority 2012, dated 2018).
# pIC50: −log10 of the molar value. “Also recorded” adds a separate entry of the source. Like-named read-outs stand apart in the source and are kept apart here.
# Legend:
# [1] = target: T1, E. coli UPPS (Escherichia coli, UniProt P60472); test: E. coli UPPS inhibition assay; assay type: biochemical
# T1 construct: His-tag (cleaved yes); made in house; host or cells: E. coli BL21 (DE3)
# T1 sequence (P60472 whole entry): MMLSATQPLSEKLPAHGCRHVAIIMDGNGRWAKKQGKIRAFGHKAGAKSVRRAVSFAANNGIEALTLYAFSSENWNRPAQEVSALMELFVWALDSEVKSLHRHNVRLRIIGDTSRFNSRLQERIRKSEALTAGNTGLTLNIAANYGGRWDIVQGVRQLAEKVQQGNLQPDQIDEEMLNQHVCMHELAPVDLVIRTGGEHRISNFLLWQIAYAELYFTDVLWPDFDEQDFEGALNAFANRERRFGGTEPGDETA
# Description: (§1) Methods. EcUPPS and SaUPPS were expressed and purified as described previously (Durrant et al., Chem Biol Drug Des 2011, 78(3):323-332). UPPS inhibition assays were carried out as described previously, and UPPS/inhibitor crystals were obtained via soaking as described previously (Guo et al., Proc Natl Acad Sci USA 2007, 104(24):10022-10027). Structure determinations and refinements were carried out as described below in Example 3. […] Full synthesis and characterization details for all compounds investigated crystallographically are provided in Example 1 above. In vivo experiments used female BALB/c mice infected intraperitoneally with S. aureus (USA200), as described in detail in Example 3 below. Bacterial cell growth inhibition assays were carried out as described previously (Zhang et al., ACS Med Chem Lett 2012, 3(5):402-406).
# (§2) UPPS Inhibition Assays. E. coli UPPS and S. aureus UPPS inhibition assays were carried out as described previously (Durrant et al., Chem Biol Drug Des 2011, 78(3):323-332). […] The IC50 values were obtained by fitting the inhibition data to a standard rectangular hyperbolic dose-response function in GraphPad PRISM 4.0 software (Graphpad Software, San Diego, Calif.). […] IPP and 0.01% Triton X-100.
# [2] = target: T2, S. aureus UPPS (Staphylococcus aureus, UniProt P60477); test: biochemical
# T2 construct: His-tag (pET-32 Xa/LIC vector tag) (N, cleaved yes); made in house; host or cells: E. coli BL21 (DE3)
# T2 sequence (P60477 1-256): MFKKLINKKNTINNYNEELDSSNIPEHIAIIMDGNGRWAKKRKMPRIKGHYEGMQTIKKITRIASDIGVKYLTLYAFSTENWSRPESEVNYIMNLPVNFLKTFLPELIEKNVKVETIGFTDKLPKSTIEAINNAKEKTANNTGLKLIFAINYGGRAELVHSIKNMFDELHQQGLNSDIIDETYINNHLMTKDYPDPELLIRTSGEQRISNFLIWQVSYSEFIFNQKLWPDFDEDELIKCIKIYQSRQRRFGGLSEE
# Description: as §1, §2
# [3] = test system: S. aureus (USA300 strain); test: S. aureus cell growth inhibition; assay type: cell-based; details: USA300, MRSA strain; for MIC90: Staphylococcus aureus
# Description: (§3) Methods. EcUPPS and SaUPPS were expressed and purified as described previously (Durrant et al., Chem Biol Drug Des 2011, 78(3):323-332). UPPS inhibition assays were carried out as described previously, and UPPS/inhibitor crystals were obtained via soaking as described previously (Guo et al., Proc Natl Acad Sci USA 2007, 104(24):10022-10027). Structure determinations and refinements were carried out as described below in Example 3. For the eleven structures reported, the resolution was on average 1.88 Å (±0.29 Å) and Rfree was on average 24.6% (±3.9%). Full synthesis and characterization details for all compounds investigated crystallographically are provided in Example 1 above. In vivo experiments used female BALB/c mice infected intraperitoneally with S. aureus (USA200), as described in detail in Example 3 below. Bacterial cell growth inhibition assays were carried out as described previously (Zhang et al., ACS Med Chem Lett 2012, 3(5):402-406).
# (§4) Cell growth inhibition. The growth of S. aureus (USA300 strain) and determination of MIC values were as described previously (Molohon et al., ACS chemical biology 2011, 6(12):1307-1313). E. coli growth and construction of isobolograms were also carried out basically as described previously (Leon et al., J Med Chem 2006, 49(25):7331-7341).
# [4] = test system: E. coli; test: E. coli cell growth inhibition; assay type: cell-based; details: for MIC90: Escherichia coli
# Description: as §3, §4
# [5] = test system: synthetic DNA dodecamer duplex d(CGCGAATTCGCG)2; test: DNA binding by differential scanning calorimetry (DSC)
# [6] = test system: Mycobacterium tuberculosis
# [7] = target: UPPS; test: UPPS inhibition, enzyme species not given; assay type: biochemical
# Description: as §1, §2
# [8] = test system: S. aureus USA200 Sanger 252 (MRSA) strain
SMILES,pIC50 [1],pIC50 [2],MIC90 [3] [µg/mL],MIC90 [4] [µg/mL],further results
"CCCCCCCCOc1cccc(COc2ccc(Br)cc2P(=O)(O)O)c1 [Compound 13, (5-bromo-2-((3-(octyloxy)benzyl)oxy)phenyl)phosphonic acid]",6.04,5.60,32,> 32,
"CCCCCCCCCCCCOc1cccc(O)c1C(=O)O [Compound 11, (Dodecyloxy)-6-hydroxybenzoic acid]",5.66,5.77,,> 32,
"O=C(Nc1cccc(C2=NCCN2)c1)c1ccc(C(=O)Nc2cccc(C3=NCCN3)c2)c([N+](=O)[O-])c1 [Compound 16, N^1, N^4-bis(3-(4,5-dihydro-1H-imidazol-2-yl)phenyl)-2-nitroterephthalamide]",5.32,5.31,> 32,8,
"O=P(O)(O)C(O)(Cc1cccc(-c2cccc3c2oc2ccccc23)c1)P(=O)(O)O [Compound 5, reference compound]",,6.46,,,pIC50 ([1]; read-out: E. coli UPPS IC50): 6.55; S. aureus MIC90 [3]: >32 µg/mL; E. coli MIC90 [4]: >32 µg/mL
O=C(Nc1cccc(C2=NCCCN2)c1)c1ccc(-c2ccc(C(=O)Nc3cccc(C4=NCCCN4)c3)cc2)cc1 [BPH-1503],,,,,"DNA binding (in words) [5]: binds to DNA; also recorded: strong DNA binding; shift in Tmax of DNA melting (DSC) ([5]; 1 mM DNA duplex, 1 mM compound): ~10 °C; concentration inhibiting Mycobacterium tuberculosis [6]: 1 µM"
"NCCc1cc(Br)cc(C#Cc2cccc(C#Cc3cc(Br)cc(CCN)c3)c2)c1 [Compound 18, 2,2′-((1,3-phenylenebis(ethyne-2,1-diyl))bis(3-bromo-5,1-phenylene))diethanamine]",,5.85,> 32,8,pIC50 ([1]; read-out: E. coli UPPS IC50): 5.21
"CCCCCCCCCCOc1cccc(C(=O)Nc2ccc([N+](=O)[O-])cc2C(=O)O)c1 [Compound 12, 2-(3-(Decyloxy)benzamido)-5-nitrobenzoic acid]",5.52,6.31,> 32,> 32,
"O=C(Nc1cccc(C2=NCCN2)c1)c1ccc(-c2ccc(C(=O)Nc3cccc(C4=NCCN4)c3)cc2)cc1 [Compound 17, N^4, N^4′-bis(3-(4,5-dihydro-1H-imidazol-2-yl)phenyl)-[1,1′-biphenyl]-4,4′-dicarboxamide]",,,0.25,4,"concentration inhibiting Mycobacterium tuberculosis [6]: 0.4 to 0.5 µM; pIC50 ([7]; read-out: UPPS IC50): 7.00; pIC50 ([7]; read-out: UPPS inhibition): ~7.00; adverse reactions in treated mice ([8]; 10 mg/kg intraperitoneally once daily, 3 doses): no apparent adverse reactions; mice survived ([8]; 10 mg/kg intraperitoneally once daily, 3 doses, pooled results of 2 experiments): 20/20; activity in mouse model of infection (in words) ([8]; 10 mg/kg once daily, 3 doses total): clear therapeutic activity; also recorded: No mice in the group treated once daily with 10 mg/kg of 17 (3 doses total) died during either experiment"
